Consider 29 compounds from patent US20160045505A1, “COMPOUNDS AND COMPOSITIONS FOR THE TREATMENT OF PARASITIC DISEASES” (NOVARTIS AG, priority 2013, published 2016).

SMILES strings stand for the structures. Like-named read-outs stand apart in the source and are kept apart here. A value given as a limit tells only on which side of the number the result lay.

Experiment [1] relates to Trypanosoma brucei Lister 427 strain, bloodstream form. Kind of experiment: Assay for proliferation of kinetoplastid parasite Trypanosoma brucei (Cell Titer Glo, 48 hours). In kind it is cell-based. Particulars: T. brucei Lister 427 bloodstream form, read-out: T. brucei EC50. The source says: Assay for Proliferation of Kinetoplastid Parasite Trypanosoma brucei.
The proliferation is quantified by the addition of Cell Titer Glo (Promega®) a luminescent cell viability assay that measures the number of viable cells in culture based on the quantification of cellular ATP amount, which is an indicator of metabolically active cells.
The following assay illustrates the invention without in any way limiting the scope of the invention. This parasite proliferation assay measures the increase in parasite growth using an assay that measures ATP activity, Cell Titer Glo®.
Trypanosoma brucei Lister 427 strain is grown in HMI-9 Trypanosome media for T. brucei bloodstream form. 30 μl of HMI-9 media is dispensed into 384 well assay plates. 200 nl of compounds of the invention (in DMSO), including anti-trypanosome controls (Pentamidine and suramin), are then transferred into the assay plates, as well as DMSO alone to serve as a negative control for inhibition. Then 25 μl of a suspension of T. brucei culture in HMI-9 media is dispensed into the assay plates. The final concentration of parasites in culture corresponds to 1.7% of 0.5 uM ATP activity with Cell Titer Glo® in HMI-9 media. The plates are placed in a 37° C. incubator for 48 hours in an atmospheric environment containing 5% CO2. 40 μl of Cell Titer Glo® is dispensed into the plates. The plates are then read for luminescence. The percentage inhibition of 50%, EC50, is calculated for each compound.

Experiment [2] has as its system L. donovani HU3 strain in mouse peritoneal macrophages. Kind of experiment: Assay for proliferation of Leishmania parasites in infected mouse peritoneal macrophages (SybrGreen staining, high-content imaging, 5 days). The class given is cell-based, Leishmania donovani. Particulars: L. donovani in mouse peritoneal macrophages, read-out: L. donovani Macrophage EC50.
The subject of experiment [3] is Leishmania donovani axenic amastigote parasites. Kind of experiment: Leishmania donovani axenic amastigote proliferation assay (Cell TiterGlo luminescence, 2 day incubation). The class given is cell-based. Particulars: read-out: L. donovani amastigotes EC50.
The subject of experiment [4] is Trypanosoma cruzi amastigotes (Tulahuen strain expressing Lac-Z) cultured in 3T3 fibroblast cells. Kind of experiment: microbe, parasite or virus in culture. In kind it is cell-based. Particulars: T. cruzi amastigotes in 3T3 fibroblast cells, read-out: T cruzi EC50.
[5] abbreviates: axenic amastigotes, inhibition of proliferation.
Where [6] appears, read: Trypanosoma cruzi, TULAHUEN, Fibroblast, inhibition of proliferation.
Where [7] appears, read: Trypanosoma brucei, inhibition of proliferation.
[8] abbreviates: Leishmania donovani, Peritoneal macrophage, inhibition of proliferation.
Setting [9] is: Leishmania donovani, axenic amastigotes, inhibition of proliferation.
[10] abbreviates: Leishmania donovani, Peritoneal macrophage.
[11] abbreviates: Leishmania donovani, L. donovani axenic amastigotes.
Where [12] appears, read: Trypanosoma cruzi, TULAHUEN, Fibroblast.

With `Cc1nc(C)c(C(=O)Nc2ccc(F)c(-c3cn4cc(NC(=O)C5CCCCO5)cnc4n3)c2)o1` (single isomer, unassigned) [Compound 184], the EC50 worked out at 0.175 µM in experiment [1] (inhibition of proliferation), 0.333 µM in experiment [2] (inhibition of proliferation), 0.146 µM in experiment [3] (setting [5]) and 0.565 µM in experiment [4] (setting [6]).

Take `Cc1nc(C)c(C(=O)Nc2ccc(F)c(-c3cn4cc(NC(=O)C5CCCCO5)cnc4n3)c2)o1` (single isomer, unassigned) [Compound 185]: the EC50 in experiment [1] (inhibition of proliferation) was determined as 0.954 µM; in experiment [2] (inhibition of proliferation) it was 1.14 µM; in experiment [3] (setting [5]), 0.462 µM; in experiment [4] (inhibition of proliferation), 1.07 µM.

As for `CC(C)OC(=O)Nc1cnc2nc(-c3cc(NC(=O)c4cocn4)ccc3Cl)cn2c1` [Compound 43], the EC50 came out at 0.474 µM in experiment [1] (setting [7]), 3.91 µM in experiment [2] (setting [8]), 0.782 µM in experiment [3] (setting [9]) and 0.409 µM in experiment [4] (setting [6]).

In the case of `CC(C)OC(=O)Nc1cnc2nc(-c3cc(NC(=O)c4ccc(Cl)o4)ccc3Cl)cn2c1` [Compound 44], the EC50 turned out to be 0.039 µM in experiment [1] (setting [7]), 0.193 µM in experiment [2] (setting [8]), 0.121 µM in experiment [3] (setting [9]) and 0.047 µM in experiment [4] (setting [6]).

In the case of `Cc1nc(C)c(C(=O)Nc2ccc(Cl)c(-c3cn4cc(NC(=O)OC(C)C)cnc4n3)c2)o1` [Compound 45], the EC50 turned out to be 0.522 µM in experiment [1] (setting [7]), 0.452 µM in experiment [2] (setting [8]), 0.226 µM in experiment [3] (setting [9]) and 0.4 µM in experiment [4] (setting [6]).

On to `Cc1nc(C(=O)Nc2ccc(Cl)c(-c3cn4cc(NC(=O)OC(C)C)cnc4n3)c2)c(C)o1` [Compound 46], for which the EC50 was 3.01 µM in experiment [1] (setting [7]), 4.99 µM in experiment [2] (setting [8]), 1.39 µM in experiment [3] (setting [9]) and 0.262 µM in experiment [4] (setting [6]).

As for `Cc1ncc(C(=O)Nc2ccc(Cl)c(-c3cn4cc(NC(=O)OC(C)C)cnc4n3)c2)o1` [Compound 47], the EC50 in experiment [1] (setting [7]) amounted to 0.128 µM; in experiment [2] (setting [8]), 0.22 µM; in experiment [3] (setting [9]), 0.077 µM; in experiment [4] (setting [6]), 0.442 µM.

On to `CC(C)OC(=O)Nc1cnc2nc(-c3cc(NC(=O)c4cn5cccnc5n4)ccc3Cl)cn2c1` [Compound 49], for which the EC50 is greater than 50 µM in experiment [1] (setting [7]), greater than 50 µM in experiment [2] (setting [8]), greater than 25 µM in experiment [3] (setting [9]) and greater than 20 µM in experiment [4] (setting [6]).

Take `CC(=O)Nc1ncc(C(=O)Nc2ccc(Cl)c(-c3cn4cc(NC(=O)OC(C)C)cnc4n3)c2)s1` [Compound 50]: the EC50 is greater than 50 µM in experiment [1] (setting [7]), greater than 50 µM in experiment [2] (setting [8]), greater than 25 µM in experiment [3] (setting [9]) and greater than 20 µM in experiment [4] (setting [6]).

As for `O=C(Nc1cnc2nc(-c3cc(NC(=O)N4CCCC4)ccc3F)cn2c1)OCc1ccccc1` [Compound 512, benzyl (2-(2-fluoro-5-(pyrrolidine-1-carboxamido)phenyl)imidazo[1,2-a]pyrimidin-6-yl)carbamate], the EC50 in experiment [1] (Trypanosoma brucei) worked out at 0.076 µM; in experiment [2] (setting [10]), 2.99 µM; in experiment [3] (setting [11]), 0.211 µM.

`O=C(Nc1cnc2nc(-c3ccc(F)c(NC(=O)N4CCCC4)c3)cn2c1)OCc1ccccc1` [Compound 513, Benzyl (2-(4-fluoro-3-(pyrrolidine-1-carboxamido)phenyl)imidazo[1,2-a]pyrimidin-6-yl)carbamate]: the figures for the EC50 in experiment [1] (Trypanosoma brucei), in experiment [2] (setting [10]) and in experiment [3] (setting [11]) were 0.426 µM, 1.58 µM and 0.958 µM, respectively.

Take `O=C(Nc1ccc(F)c(-c2cn3cc(F)cnc3n2)c1)N1CCCC1` [Compound 514]: the EC50 in experiment [1] (Trypanosoma brucei) amounted to 0.084 µM; in experiment [2] (setting [10]), 1.64 µM; in experiment [3] (setting [11]) it was 0.641 µM.

As for `CN1CCN(C(=O)Nc2ccc(F)c(-c3cn4cc(Br)cnc4n3)c2)CC1` [Compound 516], the EC50 in experiment [1] (Trypanosoma brucei) was greater than 50 µM; in experiment [2] (setting [10]) it was 21 µM; in experiment [3] (setting [11]) it was greater than 25 µM.

For `COC(=O)Nc1ccc(F)c(-c2cn3cc(Br)cnc3n2)c1` [Compound 517], the EC50 was 1.43 µM in experiment [1] (Trypanosoma brucei), greater than 50 µM in experiment [2] (setting [10]) and 4.59 µM in experiment [3] (setting [11]).

Take `CC(C)Nc1ccc(F)c(-c2cn3cc(NC(=O)OC(C)C)cnc3n2)c1` [Compound 523]: the EC50 was greater than 50 µM in experiment [1] (Trypanosoma brucei), 37.7 µM in experiment [2] (setting [10]) and greater than 25 µM in experiment [3] (setting [11]).

`CC(=O)Nc1ccc(F)c(-c2cn3cc(NC(=O)OC(C)(C)C)cnc3n2)c1` [Compound 529, tert-butyl (2-(5-acetamido-2-fluorophenyl)imidazo[1,2-a]pyrimidin-6-yl)carbamate]: the half-maximal effective concentration (EC50) in experiment [1] (Trypanosoma brucei) is 3.26 µM; in experiment [2] (setting [10]), greater than 50 µM; in experiment [3] (setting [11]), 7.23 µM.

On to `CC(C)(C)OC(=O)Nc1cnc2nc(-c3cc(NC=O)ccc3F)cn2c1` [Compound 532, tert-butyl (2-(2-fluoro-5-formamidophenyl)imidazo[1,2-a]pyrimidin-6-yl)carbamate], for which the EC50 is 17.8 µM in experiment [1] (Trypanosoma brucei), greater than 50 µM in experiment [2] (setting [10]) and 13.9 µM in experiment [3] (setting [11]).

Regarding `COCCN1CCC(c2cnc3nc(-c4cc(NC(=O)c5oc(C)nc5C)ccc4F)cn3c2)CC1` [Compound 540], the EC50 in experiment [1] (Trypanosoma brucei) was 0.868 µM; in experiment [3] (setting [11]) it was greater than 25 µM; in experiment [4] (setting [12]) it was 1.33 µM.

For the compound `Cc1nc(C)c(C(=O)Nc2ccc(F)c(-c3cn4cc(C5CCN(CCO)CC5)cnc4n3)c2)o1` [Compound 541], the results for the EC50 in experiment [1] (Trypanosoma brucei), in experiment [3] (setting [11]) and in experiment [4] (setting [12]) were 9.92 µM, greater than 25 µM and greater than 20 µM, respectively.

For `Cc1nc(C)c(C(=O)Nc2ccc(F)c(-c3cn4cc(C5CCN(C(=O)CO)CC5)cnc4n3)c2)o1` [Compound 542, N-(4-fluoro-3-(6-(1-(2-hydroxyacetyl)piperidin-4-yl)imidazo[1,2-a]pyrimidin-2-yl)phenyl)-2,4-dimethyloxazole-5-carboxamide], the figures for the EC50 in experiment [1] (Trypanosoma brucei), in experiment [3] (setting [11]) and in experiment [4] (setting [12]) were 0.467 µM, 0.45 µM and 8.06 µM, respectively.

For the compound `CN(C(=O)N1CCCC1)c1ccc(F)c(-c2cn3cc(N)cnc3n2)c1` [Compound 558], the EC50 in experiment [1] (Trypanosoma brucei) was 17.2 µM; in experiment [2] (setting [10]) it was greater than 50 µM; in experiment [3] (setting [11]) it was greater than 25 µM.

Turning to `O=C(Nc1ccc(F)c(-c2cn3cc(NC(=O)C(F)(F)F)cnc3n2)c1)N1CCCC1` [Compound 566, N-(4-fluoro-3-(6-(2,2,2-trifluoroacetamido)imidazo[1,2-a]pyrimidin-2-yl)phenyl)pyrrolidine-1-carboxamide], the EC50 in experiment [1] (Trypanosoma brucei) amounted to 0.212 µM; in experiment [2] (setting [10]), 12 µM; in experiment [3] (setting [11]), 1.14 µM.

With `CC(=O)Nc1ccc(F)c(-c2cn3cc(NC(C)=O)cnc3n2)c1` [Compound 567, N-(2-(5-acetamido-2-fluorophenyl)imidazo[1,2-a]pyrimidin-6-yl)acetamide], the figures for the EC50 in experiment [1] (Trypanosoma brucei), in experiment [2] (setting [10]) and in experiment [3] (setting [11]) were 12.1 µM, greater than 50 µM and greater than 25 µM, respectively.

In the case of `Cc1nc(C)c(C(=O)Nc2ccc(F)c(-c3cn4cc(CC(F)(F)F)cnc4n3)c2)o1` [Compound 575, N-(4-fluoro-3-(6-(2,2,2-trifluoroethyl)imidazo[1,2-a]pyrimidin-2-yl)phenyl)-2,4-dimethyloxazole-5-carboxamide], the EC50 in experiment [1] (Trypanosoma brucei) came out at 0.022 µM; in experiment [3] (setting [11]), 0.078 µM; in experiment [4] (setting [12]), 0.052 µM.

As to `CC(C)(C)OC(=O)Nc1cnc2nc(-c3cccc(NC(=O)N4CCCC4)c3F)cn2c1` [Compound 579], the figures for the EC50 in experiment [1] (Trypanosoma brucei), in experiment [2] (setting [10]) and in experiment [3] (setting [11]) were 36.2 µM, greater than 50 µM and greater than 25 µM, respectively.

For `CC(C)c1cnc2nc(-c3cc(N)ccc3F)cn2c1` [Compound 584, 4-fluoro-3-(6-isopropylimidazo[1,2-a]pyrimidin-2-yl)aniline], the EC50 in experiment [1] (Trypanosoma brucei) is greater than 50 µM; in experiment [2] (setting [10]), 2.27 µM; in experiment [3] (setting [11]), greater than 25 µM.

Regarding `CN(CC(F)(F)F)C(=O)Nc1ccc(F)c(-c2cn3cc(Br)cnc3n2)c1` [Compound 586, 3-(3-(6-bromoimidazo[1,2-a]pyrimidin-2-yl)-4-fluorophenyl)-1-methyl-1-(2,2,2-trifluoroethyl)urea], the EC50 came to 0.059 µM in experiment [1] (Trypanosoma brucei), 4 µM in experiment [2] (setting [10]) and 0.552 µM in experiment [3] (setting [11]).

With `CC(C)Nc1cnc2nc(-c3cc(NC(=O)N4CC(F)C4)ccc3F)cn2c1` [Compound 592], the EC50 in experiment [1] (Trypanosoma brucei) is 0.053 µM; in experiment [2] (setting [10]), 0.428 µM; in experiment [3] (setting [11]) it was 0.145 µM.

As for `CN(C)c1cnc2nc(-c3cc(NC(=O)N4CC(F)C4)ccc3F)cn2c1` [Compound 593], the EC50 in experiment [1] (Trypanosoma brucei) turned out to be 0.054 µM; in experiment [2] (setting [10]) it was 0.16 µM; in experiment [3] (setting [11]), 0.255 µM.
